Where a SMILES comes first, the peptide text is derived from it. Side-chain parts run from the residue outwards. [ ]: non-standard residue; d: D form. The star is where a group is joined. X1 = CN1/C(=C\C=C\C2=[N+](CCCCCC(=O)*)c3ccccc3C2(C)C)C(C)(C)c2ccccc21; Pteroyl = Nc1nc2ncc(CNc3ccc(C(=O)*)cc3)nc2c(=O)[nH]1; Cha = N[C@@H](CC1CCCCC1)C(=O)O; dCha = N[C@H](CC1CCCCC1)C(=O)O
Columns and labels:
Assay type in all cases: cell-based, human
KB cells = assay: Cell viability assay (CellTiter-Blue), KB cells; conditions: 7 × 10^3 cells per well, folic acid-depleted RPMI-1640 + 10% FBS, 1% DMSO, 24 h at 37 °C, then CellTiter-Blue 4 h, three biological replicates fitted in Origin, standard error in brackets
Experimental: (§1) KB and MCF7 cells were kindly gifted by Prof. Arwyn T. Jones (Cardiff University), HEK293 cells were purchased from Public Health England, and SK-OV-3 cells were purchased from National Collection of Authenticated Cell Cultures (https://cell-bank.org.cn/). Cells were routinely tested for mycoplasma infection. KB and SK-OV-3 cells were maintained in T75 flasks at 37 °C in a 5% CO2 atmosphere in folic acid-depleted Roswell Park Memorial Institute (RPMI)-1640 medium supplemented with 10% (v/v) fetal bovine serum (FBS). MCF7 and HEK293 cells were maintained in T75 flasks at 37 °C in a 5% CO2 atmosphere in Dulbecco’s Modified Eagle’s medium (DMEM) supplemented with 10% (v/v) FBS. Cells were maintained at a sub-confluent monolayer and split at 80–85% confluency. For splitting, cells were washed with PBS, trypsinized in 1 mL of trypsin, and 200 µL of the 1000 µL trypsin cell suspension was re-suspended in 12 mL fresh DMEM containing 10% (v/v) FBS in a new T75 flask. KB and SK-OV-3 cells were used for biological experiments after being maintained for at least 10 days in folic acid-depleted RPMI-1640 medium.
(§2) SK-OV-3, MCF7, and HEK293 cells were seeded at a density of 2 × 10^4 cells per well in a Nunc™ MicroWell™ 96-well plate and grown at 37 °C in a 5% CO2 atmosphere in DMEM supplemented with 10% (v/v) FBS for 24 h. KB cells were seeded at a density of 7 × 10^3 cells per well in a 96-well plate and grown at 37 °C in a 5% CO2 atmosphere in folic acid-depleted RPMI-1640 medium supplemented with 10% (v/v) FBS for 24 h. Stock solutions of compounds 2–6 and 11–13 were obtained by dissolving the compounds in sterile deionized water. Compounds 1, and 7–10 were dissolved in pure DMSO. The stock solutions were diluted into the proper medium (according to the cell line tested) supplemented with 10% FBS to the appropriate concentration, and cells in each well were incubated with 100 µL of the solution. The solutions in each well were then adjusted to a concentration of 1% (v/v) DMSO. After 24 h at 37 °C, 20 µL of CellTiter-Blue™ was added to each well. The plate was incubated for another 4 h at 37 °C before analysis on a Perkin Elmer Victor X plate reader (excitation 531 nm; emission 595 nm). Each data point was calculated from a minimum of nine values resulting from three biological replicates (i.e., cells split from three different passages); each biological replicate is calculated from three technical replicates (i.e., cells split from the same passage). Value from media-only with CellTiter-Blue™ was set at 0% viability. This value was then subtracted from the values from cell-only (i.e., non-treated) wells with CellTiter-Blue™ in each biological replicate and set as 100% viability. For treatments of Cy3-containing compounds, blanks were generated with cell-free wells containing the compounds incubated for 24 h before addition of CellTiter-Blue™. The fluorescent reading for these wells was deducted from the treatment readings. Dose-response fitting curves were generated using Origin, version 2019b, OriginLab Corporation, Northampton, MA, USA (Figures S21–S24, Supplementary Materials).
(§3) Comparison of cytotoxicity fitting curves was achieved by applying the extra sum-of-squares F test, performed using GraphPad Prism version 9 for Windows, GraphPad Software, La Jolla, California, USA (https://www.graphpad.com/). […] Statistical analysis on the flow cytometry data was achieved by applying the unpaired two-tailed t-test test, performed using GraphPad Prism version 9 for Windows, GraphPad Software, La Jolla California USA, USA (https://www.graphpad.com/).
(§4) Cytotoxicity of 1–13 was evaluated using the CellTiter-Blue assay on KB, MCF7, SK-OV-3, and HEK293 cells. KB cells are derived from human cervical cancer, while SK-OV-3 cells are derived from human ovarian cancer. […] This feature is of particular relevance in anticancer applications, as it can be exploited for selective targeting and delivery. […]

[1] = tested on: KB, MCF7, SK-OV-3, and HEK293 cells; assay: Cell viability assay (CellTiter-Blue), statements over all tested cell lines; conditions: for Potency (cytotoxicity) in the tested cell lines, in words: extra sum-of-squares F test; for Selectivity of cytotoxicity between cell lines, in words: folate receptor α-high KB and SK-OV-3 versus MCF7 and HEK293
Experimental: as §2, §3
Cytotoxicity of 1–13 was evaluated using the CellTiter-Blue assay on KB, MCF7, SK-OV-3, and HEK293 cells. KB cells are derived from human cervical cancer, while SK-OV-3 cells are derived from human ovarian cancer. […] This feature is of particular relevance in anticancer applications, as it can be exploited for selective targeting and delivery. MCF7 is a cell line derived from human breast cancer with low levels of folate receptor α [27]. Therefore, it can serve as the negative control for folate receptor α mediated tumor-targeted drug delivery systems. HEK293 is a non-cancer cell line and was chosen to evaluate the specificity of the tested compounds toward cancer cells.

HEK293 cells = assay: Cell viability assay (CellTiter-Blue), HEK293 cells; conditions: 2 × 10^4 cells per well, DMEM + 10% FBS, 1% DMSO, 24 h at 37 °C, then CellTiter-Blue 4 h, three biological replicates fitted in Origin, standard error in brackets
Experimental: as §1, §2, §3, §4

MCF7 cells = assay: Cell viability assay (CellTiter-Blue), MCF7 cells; conditions: for EC50: MCF7 cells, 2 × 10^4 cells per well, DMEM + 10% FBS, 1% DMSO, 24 h at 37 °C, then CellTiter-Blue 4 h, three biological replicates fitted in Origin, standard error in brackets
Experimental: as §1, §2, §3, §4

SK-OV-3 cells = assay: Cell viability assay (CellTiter-Blue), SK-OV-3 cells; conditions: 2 × 10^4 cells per well, medium + 10% FBS, 1% DMSO, 24 h at 37 °C, then CellTiter-Blue 4 h, three biological replicates fitted in Origin, standard error in brackets
Experimental: as §1, §2, §3, §4

[2] = tested on: mitochondria of MCF7 cells; assay: Confocal microscopy, colocalisation with MitoTracker Green FM, MCF7 cells; conditions: 10 µM conjugate, 10 min at 37 °C
Experimental: (§5) SK-OV-3 and MCF7 were seeded at a density of 1 × 10^6 cells per well in glass-bottom culture dishes and grown at 37 °C in a 5% CO2 atmosphere in medium supplemented with 10% (v/v) FBS for 24 h. Cells were washed once with the RPMI-1640 medium supplemented with 10% (v/v) FBS before staining. Compounds 1, 5–10 were diluted into the RPMI-1640 medium supplemented with 10% (v/v) FBS to 10 μM and then added to the culture dishes, respectively. After 10-min incubation at 37 °C, cells were washed with RPMI-1640 medium supplemented with 10% (v/v) FBS. Cells were then treated with 50 nM MitoTracker Green FM and 10 μg/mL Hoechst33258 pre-formulated with RPMI-1640 medium supplemented with 10% (v/v) FBS and then incubated for another 10 min at 37 °C before analysis on ZEISS LSM 900 with Airyscan 2. The results were analyzed using Image J software (Figure 3 and Figures S4–S7 in Supplementary Materials).
(§6) Figure 3 Confocal microscopy images of SK-OV-3 and MCF7 cells treated with Cy3-containing conjugates. Cells were treated with 10 µM of the indicated conjugate for 10 min at 37 °C, washed, stained with 50 nM MitoTracker Green FM and 10 μg/mL Hoechst33258 for 10 min at 37 °C, washed, and imaged at 63X. Pearson’s correlation coefficients of MitoTracker Green FM and Cy3 fluorescence for compounds 1, 5, 6, 7, 8, 9, and 10 in SK-OV-3 and MCF cells are 0.75/0.64, 0.73/0.81, 0.91/0.61, 0.78/0.63, 0.85/0.69, 0.43/0.82, and 0.78/0.60, respectively. Excitation wavelengths for Hoechst33258, MitoTracker Green FM and Cy3 were set as 405, 488, and 561 nm, respectively. Scale bars denote 25 μm. Additional images, including the results of Hoechst33258 staining, are shown in Figure S4 (SK-OV-3 at 20X), Figure S5 (SK-OV-3 at 63X), Figure S6 (MCF7 at 20X) and Figure S7 (MCF7 at 63X), Supplementary Materials.

[3] = tested on: mitochondria of SK-OV-3 cells; assay: Confocal microscopy, colocalisation with MitoTracker Green FM, SK-OV-3 cells; conditions: 10 µM conjugate, 10 min at 37 °C
Experimental: as §5, §6

[4] = KB, SK-OV-3, MCF7 and HEK293 cells, CellTiter-Blue

For C[C@@H](NC(=O)[C@H](CC1CCCCC1)NC(=O)[C@@H](CCCCN)NC(=O)[C@@H](C)NC(=O)[C@@H](CC1CCCCC1)NC(=O)[C@H](N)CCCCN)C(=O)N[C@H](CCCCN)C(=O)N[C@H](CCCCN)C(=O)N[C@@H](CC1CCCCC1)C(=O)N[C@H](C)C(=O)N[C@H](CCCCN)C(=O)N[C@H](CC1CCCCC1)C(=O)N[C@H](C)C(=O)N[C@H](CCCCN)C(N)=O [Compound 4, reference compound] (HELM PEPTIDE1{[dK].[O=C([C@@H](CC1CCCCC1)N[*:1])[*:2]].[dA].[dK].[Cha].[dA].[dK].[dK].[Cha].[dA].[dK].[O=C([C@@H](CC1CCCCC1)N[*:1])[*:2]].[dA].[dK].[am]}$$$$V2.0), the EC50 (KB cells) was 6.5 µM, the “Potency (cytotoxicity) in the tested cell lines, in words” value [1, 4] was “good potency in all tested cell lines” and the EC50 (HEK293 cells) was 15.6 µM. The EC50 (MCF7 cells) was 50.9 µM, the “EC50 in MCF7 cells, times higher than in the other tested cell lines” value (MCF7 cells; MCF7 versus KB, SK-OV-3 and HEK293) was 3-8 times and the EC50 (SK-OV-3 cells) was 11.6 µM.

For CC(=O)N[C@@H](CCCCNC(=O)[C@H](CCC(=O)O)NC(=O)c1ccc(NCc2cnc3nc(N)nc(O)c3n2)cc1)C(=O)N[C@H](CCCCN)C(=O)N[C@H](CC1CCCCC1)C(=O)N[C@H](C)C(=O)N[C@H](CCCCN)C(=O)N[C@@H](CC1CCCCC1)C(=O)N[C@H](C)C(=O)N[C@H](CCCCN)C(=O)N[C@H](CCCCN)C(=O)N[C@@H](CC1CCCCC1)C(=O)N[C@H](C)C(=O)N[C@H](CCCCN)C(=O)N[C@H](CC1CCCCC1)C(=O)N[C@H](C)C(=O)N[C@H](CCCCN)C(N)=O [Compound 13] (Ac-K([Glu-Pteroyl])[dK][dCha][dA][dK][Cha][dA][dK][dK][Cha][dA][dK][dCha][dA][dK]-NH2), the EC50 (KB cells) was 9.8 µM, the “Selectivity of cytotoxicity between cell lines, in words” value [1] was “significantly higher” and the EC50 (HEK293 cells) was 20.4 µM. It also gave an EC50 (MCF7 cells) of 26.9 µM and an EC50 (SK-OV-3 cells) of 41.5 µM.

For CC(=O)N[C@@H](CCCCNC(=O)[C@H](CCC(=O)O)NC(=O)c1ccc(NCc2cnc3nc(N)nc(O)c3n2)cc1)C(=O)N[C@H](CCCCN)C(=O)N[C@H](CC(C)C)C(=O)N[C@H](C)C(=O)N[C@H](CCCCN)C(=O)N[C@H](CC(C)C)C(=O)N[C@H](C)C(=O)N[C@H](CCCCN)C(=O)N[C@H](CCCCN)C(=O)N[C@H](CC(C)C)C(=O)N[C@H](C)C(=O)N[C@H](CCCCN)C(=O)N[C@H](CC(C)C)C(=O)N[C@H](C)C(=O)N[C@H](CCCCN)C(N)=O [Compound 12], the EC50 (KB cells) was 151 µM, the “Selectivity of cytotoxicity between cell lines, in words” value [1] was “enhanced toxicity in KB but not in SK-OV-3 cells when compared to MCF7 and HEK293 cells” and the EC50 (HEK293 cells) was over 400 µM. It also gave an EC50 (MCF7 cells) of over 400 µM and an EC50 (SK-OV-3 cells) of 388 µM.

For CC(C)C[C@H](NC(=O)[C@H](CCCCN)NC(=O)[C@H](C)NC(=O)[C@H](CC(C)C)NC(=O)[C@H](CCCCN)NC(=O)[C@H](CCCCN)NC(=O)[C@H](C)NC(=O)[C@H](CC(C)C)NC(=O)[C@H](CCCCN)NC(=O)[C@H](C)NC(=O)[C@H](CC(C)C)NC(=O)[C@@H](N)CCCCN)C(=O)N[C@@H](C)C(=O)N[C@@H](CCCCN)C(N)=O [Compound 2, reference compound], the EC50 (KB cells) was over 400 µM, the EC50 ([1]; KB, SK-OV-3, MCF7 and HEK293 cells, CellTiter-Blue, 24 h) was over 300 µM and the “Potency (cytotoxicity) in the tested cell lines, in words” value [1, 4] was “least potent amongst the tested compounds”. For the same compound, the EC50 (HEK293 cells) was over 400 µM, the EC50 (MCF7 cells) was over 400 µM and the EC50 (SK-OV-3 cells) was over 400 µM.

For C[C@@H](NC(=O)[C@H](CC1CCCCC1)NC(=O)[C@@H](CCCCN)NC(=O)[C@@H](C)NC(=O)[C@@H](CC1CCCCC1)NC(=O)[C@@H](CCCCN)NC(=O)CCCCC[N+]1=C(/C=C/C=C2\N(C)c3ccccc3C2(C)C)C(C)(C)c2ccccc21)C(=O)N[C@H](CCCCN)C(=O)N[C@H](CCCCN)C(=O)N[C@@H](CC1CCCCC1)C(=O)N[C@H](C)C(=O)N[C@H](CCCCN)C(=O)N[C@H](CC1CCCCC1)C(=O)N[C@H](C)C(=O)N[C@H](CCCCN)C(N)=O [Compound 7] (X1-[dK][dCha][dA][dK][Cha][dA][dK][dK][Cha][dA][dK][dCha][dA][dK]-NH2), the “Pearson's correlation coefficient of MitoTracker Green and Cy3 fluorescence” value ([2]; imaged at 20X) was 0.52, the “Pearson's correlation coefficient of MitoTracker Green FM and Cy3 fluorescence” value ([2]; imaged at 63X) was 0.63 and the EC50 (KB cells) was 5.5 µM. The EC50 (HEK293 cells) was 8.2 µM, the EC50 (MCF7 cells) was 11.6 µM and the EC50 (SK-OV-3 cells) was 23 µM. For the same compound, the “Pearson's correlation coefficient of MitoTracker Green and Cy3 fluorescence” value ([3]; imaged at 20X) was 0.74 and the “Pearson's correlation coefficient of MitoTracker Green FM and Cy3 fluorescence” value ([3]; imaged at 63X) was 0.78.

Source: paper PMC9138991, “Effect of Trimethine Cyanine Dye- and Folate-Conjugation on the In Vitro Biological Activity of Proapoptotic Peptides” (Biomolecules, 2022)
